# Laboratory results as given in patent US20250049800A1, “VCP/p97 INHIBITOR FOR THE TREATMENT OF CANCER” (CASI Pharmaceuticals, Inc., priority 2021, published 2025).
# Like-named read-outs stand apart in the source and are kept apart here.
# Assays:
# [1] = system: K48-Ub (ubiquitin); test: K48-Ub (ubiquitin) biomarker in patient blood samples; type: in vivo, human; conditions: cohorts 4 and 5; two of 5 patients showed changes
# Experimental: (§1) Two biomarkers were assessed in patients from cohorts 4 and 5. K48-Ub (ubiquitin) and Activated Caspase 3 biomarkers were analyzed from 5 patient blood samples.
# [2] = system: Activated Caspase 3; test: Activated Caspase 3 biomarker in patient blood samples; type: in vivo, human; conditions: cohorts 4 and 5; one patient
# Experimental: as §1
# [3] = system: DoTc2 4510 (Uterus/Cervix); test: Cell Titer-Glo viability: single agent IC50 and Compound 1 + PARP inhibitor matrix (Bliss); type: cell-based; conditions: Homo sapiens, single agent, read-out: Absolute IC50
# Experimental: (§2) The PARP inhibitors used for the study were talazoparib, olaparib and niraparib. […] was used as a reference control. […] For each drug agent on its own, IC50 values in each cell line were determined. Interactions of the combinations of Compound 1 and each PARP inhibitor was assessed as follows: […] Cisplatin and culture media were used as positive and negative control, respectively. The combination activities were assessed using CrownSyn software to determine synergy scores by Bliss Independence and Loewe additivity methods. […] Synergy scores calculated by both Bliss independence model and Loewe additivity model (see Greco, […]., Poch, G., Suhnel, J., Kundi, M., & Bodeker, W. (1992). Consensus on concepts and terminology for combined-action assessment: the […] agreement. […] Without being bound by theory, the Bliss independence model is often applied to asses synergy for non-interacting drugs that elicit their responses independently, e.g., by targeting separate pathways, whereas the Loewe additivity model may be more compatible where both drugs have similar modes of action on the same targets or pathways.
# [4] = system: MX-1 (Breast); test: as above; type: cell-based; conditions: single agent, read-out: Absolute IC50
# Experimental: as §2
# [5] = system: IGR-OV1 (Ovary); test: as above; type: cell-based; conditions: Homo sapiens, IGROV-1, 72 h, single agent, read-out: Absolute IC50
# Experimental: as §2
# [6] = system: HCC1806 (Breast); test: as above; type: cell-based; conditions: Homo sapiens, 72 h, single agent, read-out: Absolute IC50
# Experimental: as §2
# [7] = system: HCC1937 (Breast); test: as above; type: cell-based; conditions: Homo sapiens, single agent, read-out: Absolute IC50
# Experimental: as §2
# [8] = system: HCC1395 (Breast); test: as above; type: cell-based; conditions: Homo sapiens, 72 h, single agent, read-out: Absolute IC50
# Experimental: as §2
# [9] = system: SK-OV-3 (Ovary); test: as above; type: cell-based; conditions: Homo sapiens, single agent, read-out: Absolute IC50
# Experimental: as §2
# [10] = system: Capan-1 (Pancreas); test: as above; type: cell-based; conditions: Homo sapiens, 72 h, single agent, read-out: Absolute IC50
# Experimental: as §2
# [11] = system: DU4475 (Breast); test: as above; type: cell-based; conditions: Homo sapiens, DU-4475, 72 h, single agent, read-out: Absolute IC50
# Experimental: as §2
# [12] = system: OVCAR-8 (Ovary); test: as above; type: cell-based; conditions: Homo sapiens, 72 h, single agent, read-out: Absolute IC50
# Experimental: as §2
# [13] = system: MOML-13 cell line; test: Cell Titer-Glo viability, fixed agent + dose response agent combinations; type: cell-based, human; conditions: MOML-13; for IC50: Homo sapiens, read-out: IC50
# Experimental: (§3) The additional therapeutic agents for this example were azacitidine (Cayman Chemical Cat No. 11164), decitabine (Sigma Cat No. A3656) and venetoclax (InvivoChem Cat. No. V0001).
# (§4) Cell Culture: Three human acute myeloid leukemia tumor cell lines were used in this study: HL60, MV4;11 and MOLM-13. HL60 and MV4;11 were grown in IMDM base media with 20% and 10% FBS, respectively. MOLM-13 was grown in RPMI 1640 base media with 20% FBS. All culture media contained 2 mM glutamine, 100 units/mL sodium penicillin G, […] gentamicin, and 100 µg/mL streptomycin sulfate. The tumor cells were cultured in tissue culture flasks in a humidified incubator at 37° C., in an atmosphere of 5% CO2 and 95% air. Assay: Tumor cells were seeded in duplicate in a volume of 100 µL/well of media into 96-well micro-culture plates at initial densities low enough to allow for several population doublings (typically three to five) during the indicated incubation period. After a 24 hour incubation, test agents were added to each well. After 72 hours of culture with test articles, cell viability was determined using the Cell Titer-Glo® (Promega G7571) assay. Briefly, Cell Titer-Glo® (Promega G7571) reagents were equilibrated at room temperature for 30 minutes; 100 μL per well was added at endpoint (72 hours). Plates were gently shaken for two minutes and then incubated at room temperature for ten minutes prior to reading luminescence on the BMG Clariostar Plus microplate reader.
# (§5) An IC50 ratio for each combination was calculated from the ratio of the combination IC50 as compared to the applicable no fixed agent (vehicle) control.
# [14] = system: MV4; 11 cell line; test: as above; type: cell-based, human; conditions: 11; for IC50: Homo sapiens, MV4-11, MV4, read-out: IC50; for Combination:Monotherapy IC50 Ratio: MV4
# Experimental: as §3, §4, §5
# [15] = system: HL-60 cell line; test: as above; type: cell-based, human; conditions: for Combination:Monotherapy IC50 Ratio: HL-60; for IC50: Homo sapiens, HL-60, HL-60, read-out: IC50
# Experimental: as §3, §4, §5
# [16] = fixed agent Azacitidine - 105 nM
# [17] = fixed agent Azacitidine - 850 nM
# [18] = fixed agent Decitabine - 2.5 nM
# [19] = fixed agent Decitabine - 8.5 nM
# [20] = fixed agent Venetoclax + Azacitidine - 6.5 nM
# [21] = fixed agent Venetoclax + Azacitidine - 20 nM
# [22] = fixed agent Azacitidine - 500 nM
# [23] = fixed agent Azacitidine - 3150 nM
# [24] = fixed agent Decitabine - 215 nM
# [25] = fixed agent Venetoclax + Azacitidine - 50 nM
# [26] = fixed agent Azacitidine - 5750 nM
# [27] = fixed agent Azacitidine - 9800 nM
# [28] = fixed agent Decitabine - 175 nM
# [29] = fixed agent Decitabine - 1700 nM
# [30] = fixed agent Venetoclax + Azacitidine - 85 nM
# [31] = fixed agent Venetoclax + Azacitidine - 475 nM
compound,measurement,setting,value
"Cc1cc2c(C(N)=O)cccc2n1-c1nc2c(c(NCc3ccccc3)n1)CCCN2 [Compound 1, 1-(4-(benzylamino)-5,6,7,8-tetrahydropyrido[2,3-d]pyrimidin-2-yl)-2-methyl-1H-indole-4-carboxamide]","K48-Ub (ubiquitin) biomarker, best fold change after treatment",[1],approximately 3.5 fold
same,"Activated Caspase 3, fold increase",[2],9 fold
same,IC50,[3],513 nM
same,IC50,[4],409 nM
same,IC50,[5],279 nM
same,IC50,[6],437 nM
same,IC50,[7],559 nM
same,IC50,[8],201 nM
same,IC50,[9],1790 nM
same,IC50,[10],405 nM
same,IC50,[11],343 nM
same,IC50,[12],200 nM
same,IC50,[13]; [16],84.6 nM
same,IC50,[13]; [17],84.9 nM
same,IC50,[13]; [18],121 nM
same,IC50,[13]; [19],65 nM
same,IC50,[13]; [20],154 nM
same,IC50,[13]; [21],113 nM
same,Combination:Monotherapy IC50 Ratio,[13]; [16],0.39
same,Combination:Monotherapy IC50 Ratio,[13]; [17],0.39
same,Combination:Monotherapy IC50 Ratio,[13]; [18],0.56
same,Combination:Monotherapy IC50 Ratio,[13]; [19],0.30
same,Combination:Monotherapy IC50 Ratio,[13]; [20],0.71
same,Combination:Monotherapy IC50 Ratio,[13]; [21],0.52
same,IC50,[14]; [22],114 nM
same,IC50,[14]; [23],118 nM
same,IC50,[14]; fixed agent Decitabine - 30 nM,117 nM
same,IC50,[14]; [24],91.5 nM
same,IC50,[14]; [21],163 nM
same,IC50,[14]; [25],118 nM
same,Combination:Monotherapy IC50 Ratio,[14]; [22],0.46
same,Combination:Monotherapy IC50 Ratio,[14]; [23],0.47
same,Combination:Monotherapy IC50 Ratio,[14]; fixed agent Decitabine - 30 nM,0.47
same,Combination:Monotherapy IC50 Ratio,[14]; [24],0.36
same,Combination:Monotherapy IC50 Ratio,[14]; [21],0.65
same,Combination:Monotherapy IC50 Ratio,[14]; [25],0.47
same,Combination:Monotherapy IC50 Ratio,[15]; [26],1.02
same,Combination:Monotherapy IC50 Ratio,[15]; [27],0.85
same,Combination:Monotherapy IC50 Ratio,[15]; [28],0.96
same,Combination:Monotherapy IC50 Ratio,[15]; [29],1.06
same,Combination:Monotherapy IC50 Ratio,[15]; [30],0.84
same,Combination:Monotherapy IC50 Ratio,[15]; [31],0.84
same,IC50,[15]; [26],311 nM
same,IC50,[15]; [27],258 nM
same,IC50,[15]; [28],294 nM
same,IC50,[15]; [29],322 nM
same,IC50,[15]; [30],256 nM
same,IC50,[15]; [31],256 nM
